Active and inactive are the calls of the source. The calls are words filed in the database; no cut-off is given here.
Experiments:
[1] = (§1) Cytotoxicity against African green monkey Vero E6 cells incubated for 48 hrs by Neutral Red method; format: toxicity, cell-based, Vero C1008; conditions: chlorocebus sabaeus, Vero E6 cells
[2] = target: T1, Replicase polyprotein 1ab (Severe acute respiratory syndrome coronavirus 2, UniProt P0DTD1); assay: Inhibition of SARS-CoV-2 PL protease preincubated for 30 mins followed by substrate addition measured after 3 hrs
[3] = Metabolic stability in mouse liver microsomes assessed as half life at 1 uM incubated for 60 mins by LC/MS/MS analysis; format: ADME, Microsome; conditions: for half-life at 1 µM: liver microsomes
SARS-CoV-2 [4] = assay: microbe, parasite or virus in culture; format: functional, organism-based, Vero E6; conditions: Severe acute respiratory syndrome coronavirus 2, Vero C1008, 24 h
SARS-CoV-2 [5] = assay: Selectivity ratio of EC50 for SARS-CoV-2 XBB1.16 infected in human Caco-2 cells expressing hTMPRSS/hACE2 to EC50 for wild-type SARS-CoV-2 WA1 infected in human Caco-2 cells expressing hTMPRSS/hACE2; format: functional
SARS-CoV-2 [6] = assay: Antiviral activity against wild-type SARS-CoV-2 WA1 infected in human Caco-2 cells expressing hTMPRSS/hACE2 incubated for 48 hrs in presence of CP-100356 by crystal violet staining based analysis; format: functional, organism-based; conditions: Severe acute respiratory syndrome coronavirus 2, WA1, Caco-2, 48 h
SARS-CoV-2 [7] = assay: Antiviral activity against SARS-CoV-2 XBB1.16 infected in human Caco-2 cells expressing hTMPRSS/hACE2 incubated for 48 hrs in presence of CP-100356 by crystal violet staining based analysis; format: functional, organism-based; conditions: Severe acute respiratory syndrome coronavirus 2, XBB1.16, Caco-2, 48 h
SARS-CoV-2 [8] = assay: Antiviral activity against SARS-CoV-2 JN.1 infected in human Caco-2 cells expressing hTMPRSS/hACE2 incubated for 48 hrs in presence of CP-100356 by crystal violet staining based analysis; format: functional, organism-based; conditions: Severe acute respiratory syndrome coronavirus 2, JN.1, Caco-2, 48 h
SARS-CoV-2 [9] = assay: Selectivity ratio of EC50 for SARS-CoV-2 JN.1 infected in human Caco-2 cells expressing hTMPRSS/hACE2 to EC50 for wild-type SARS-CoV-2 WA1 infected in human Caco-2 cells expressing hTMPRSS/hACE2; format: functional
Vero C1008 = assay: as §1; format: toxicity, cell-based; conditions: chlorocebus sabaeus, vero c1008, 48 h
[10] = target: T1, Replicase polyprotein 1ab; assay: Inhibition of SARS-CoV-2 PL protease using Ub-AMC as substrate preincubated for 30 mins followed by substrate addition measured for 1 hr
[11] = target: T1, Replicase polyprotein 1ab; assay: Inhibition of SARS-CoV-2 PL protease using ISG15-AMC as substrate preincubated for 30 mins followed by substrate addition measured for 1 hr
[12] = target: Ubiquitin carboxyl-terminal hydrolase 7 (Homo sapiens) (UniProt Q93009); assay: Inhibition of N-terminal polyhis/GST-tagged full-length human USP7 (1 to 1102 residues) expressed in baculovirus infected insect cells using Ub-AMC as substrate upto 100 uM; conditions: Insect cell
[13] = target: Ubiquitin carboxyl-terminal hydrolase 14 (Homo sapiens) (UniProt P54578); assay: Inhibition of N-terminal 6His-tagged recombinant human USP14 (91 to 494 residues) expressed in Escherichia coli using Ub-AMC as substrate upto 100 uM
[14] = Cmax in C57BL/6J mouse at 50 mg/kg, po measured 5 hrs by LC/MS/MS analysis; format: ADME, organism-based; conditions: in vivo
[15] = Cmax in C57BL/6J mouse at 50 mg/kg, ip measured 0.5 hrs by LC/MS/MS analysis; format: ADME, organism-based; conditions: in vivo
[16] = AUClast in C57BL/6J mouse at 50 mg/kg, ip measured 5 hrs by LC/MS/MS analysis; format: ADME, organism-based; conditions: in vivo
SARS-CoV-2 [17] = assay: microbe, parasite or virus in culture; format: functional, organism-based; conditions: Severe acute respiratory syndrome coronavirus 2, Caco-2, 24 h

Chain of Ubiquitin carboxyl-terminal hydrolase 14 (Homo sapiens) (P54578 whole entry, the tested form may be a part): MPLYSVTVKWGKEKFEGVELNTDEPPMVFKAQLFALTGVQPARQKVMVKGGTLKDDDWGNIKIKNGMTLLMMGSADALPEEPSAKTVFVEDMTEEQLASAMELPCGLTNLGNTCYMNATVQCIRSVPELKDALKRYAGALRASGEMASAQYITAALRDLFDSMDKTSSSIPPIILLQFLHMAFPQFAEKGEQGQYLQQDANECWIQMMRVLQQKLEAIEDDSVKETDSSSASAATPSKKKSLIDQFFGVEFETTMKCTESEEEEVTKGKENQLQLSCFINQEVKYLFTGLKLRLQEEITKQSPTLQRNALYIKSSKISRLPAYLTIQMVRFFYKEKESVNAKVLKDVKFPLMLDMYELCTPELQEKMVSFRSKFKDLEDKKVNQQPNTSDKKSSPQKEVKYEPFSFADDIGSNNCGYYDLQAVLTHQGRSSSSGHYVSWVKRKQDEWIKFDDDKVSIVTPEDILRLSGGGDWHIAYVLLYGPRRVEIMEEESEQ
Chain of Ubiquitin carboxyl-terminal hydrolase 7 (Homo sapiens) (Q93009 whole entry, looked up, the tested form may be a part): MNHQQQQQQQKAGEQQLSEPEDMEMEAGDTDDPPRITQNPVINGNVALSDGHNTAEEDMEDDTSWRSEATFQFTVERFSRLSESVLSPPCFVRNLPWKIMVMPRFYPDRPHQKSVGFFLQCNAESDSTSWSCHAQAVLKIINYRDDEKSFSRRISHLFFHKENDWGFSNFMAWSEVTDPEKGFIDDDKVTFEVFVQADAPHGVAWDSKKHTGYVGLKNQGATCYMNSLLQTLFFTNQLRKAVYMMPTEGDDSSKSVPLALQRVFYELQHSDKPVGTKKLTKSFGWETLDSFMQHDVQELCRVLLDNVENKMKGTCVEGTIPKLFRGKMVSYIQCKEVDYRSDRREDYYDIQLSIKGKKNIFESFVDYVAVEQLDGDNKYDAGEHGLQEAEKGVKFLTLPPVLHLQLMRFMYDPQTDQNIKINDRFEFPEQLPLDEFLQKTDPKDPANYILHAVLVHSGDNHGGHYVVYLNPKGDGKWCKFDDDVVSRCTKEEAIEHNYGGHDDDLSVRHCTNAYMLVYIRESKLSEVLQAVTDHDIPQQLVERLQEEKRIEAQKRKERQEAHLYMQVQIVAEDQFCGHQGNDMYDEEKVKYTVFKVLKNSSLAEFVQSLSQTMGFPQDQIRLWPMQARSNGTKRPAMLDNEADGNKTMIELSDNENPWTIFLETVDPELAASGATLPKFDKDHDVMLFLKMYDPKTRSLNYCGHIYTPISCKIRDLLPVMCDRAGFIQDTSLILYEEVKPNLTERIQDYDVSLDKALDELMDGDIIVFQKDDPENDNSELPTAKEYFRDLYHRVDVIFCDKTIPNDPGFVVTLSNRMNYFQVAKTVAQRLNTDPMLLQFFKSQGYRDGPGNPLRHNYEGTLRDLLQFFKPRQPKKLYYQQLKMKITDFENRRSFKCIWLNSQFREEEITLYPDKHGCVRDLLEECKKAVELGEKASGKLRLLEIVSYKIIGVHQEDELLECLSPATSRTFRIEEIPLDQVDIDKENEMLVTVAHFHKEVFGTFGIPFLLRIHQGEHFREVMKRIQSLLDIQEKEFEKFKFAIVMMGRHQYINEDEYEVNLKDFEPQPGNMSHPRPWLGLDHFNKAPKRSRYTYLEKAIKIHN

SMILES | CC50 at 48 h [1] | IC50 [2] | further results
C#CCNC(=O)CCc1ccccc1C(=O)N[C@H](C)c1cc(-c2cnn(C)c2)cc(-c2ccn(CC)n2)c1 | 256000 nM | 5000 nM | 
CCn1ccc(-c2cc(-c3cnn(C)c3)cc([C@@H](C)NC(=O)c3ccccc3CCC(=O)NNC(=O)/C=C/C(=O)N3CC(C(F)(F)F)C3)c2)n1 |  | 100 nM | 
CCn1ccc(-c2cc(-c3cnn(C)c3)cc([C@@H](C)NC(=O)c3ccccc3CCC(=O)NCC(=O)CF)c2)n1 | > 250000 nM |  | 
CCn1ccc(-c2cc(-c3cnn(C)c3)cc([C@@H](C)NC(=O)c3ccccc3CCC(=O)NNC(=O)/C=C/C(=O)NC3CC(F)(F)C3)c2)n1 | > 250000 nM | 200 nM | half-life at 1 µM [3]: 1.31 h; EC50 (SARS-CoV-2 [4]): 2400 nM
CCn1ccc(-c2cc(-c3cnn(C)c3)cc([C@@H](C)NC(=O)c3ccccc3CCC(=O)NNC(=O)C34CC(C3)C4)c2)n1 | > 250000 nM |  | 
CCn1ccc(-c2cc(-c3cnn(C)c3)cc([C@@H](C)NC(=O)c3ccccc3CNC(=O)CNC(=O)/C=C/C(=O)N3CC(F)(F)C3)c2)n1 | > 250000 nM | 500 nM | 
CCn1ccc(-c2cc(-c3cnn(C)c3)cc([C@@H](C)NC(=O)c3ccccc3CCC(=O)NNC(=O)/C=C/C(=O)NC3CC3)c2)n1 | > 250000 nM | 200 nM | half-life at 1 µM [3]: > 2.42 h; EC50 (SARS-CoV-2 [4]): 5200 nM
CCOC(=O)/C=C/C(=O)NNC(=O)CCc1ccccc1C(=O)N[C@H](C)c1cc(-c2cnn(C)c2)cc(-c2ccn(CC)n2)c1 |  | 100 nM | 
CCn1ccc(-c2cc(-c3cnn(C)c3)cc([C@@H](C)NC(=O)c3ccccc3CCC(=O)NNC(=O)/C=C/C(=O)OC(C)(C)C)c2)n1 |  | 100 nM | EC50 (SARS-CoV-2 [4]): 99.2 nM
CCn1ccc(-c2cc(-c3cnn(C)c3)cc([C@@H](C)NC(=O)c3ccccc3CCC(=O)NNC(=O)/C=C/C(=O)N3CC(F)C3)c2)n1 | > 250000 nM | 100 nM | half-life at 1 µM [3]: 1.3 h; EC50 (SARS-CoV-2 [4]): 935 nM
CC(C)(C)[C@H](NC(=O)C(F)(F)F)C(=O)N1C[C@H]2[C@@H]([C@H]1C(=O)N[C@H](C#N)C[C@@H]1CCNC1=O)C2(C)C |  |  | Ratio EC50 (SARS-CoV-2 [5]): 1.1; EC50 (SARS-CoV-2 [6]): 33.9 nM; EC50 (SARS-CoV-2 [7]): 37.1 nM; EC50 (SARS-CoV-2 [8]): 96 nM; Ratio EC50 (SARS-CoV-2 [9]): 2.8
CCn1ccc(-c2cc(-c3cnn(C)c3)cc([C@@H](C)NC(=O)c3ccccc3CCC(=O)NNC(C)=O)c2)n1 | > 250000 nM |  | 
CCn1ccc(-c2cc(-c3cnn(C)c3)cc([C@@H](C)NC(=O)c3ccccc3CCC(=O)NNC(=O)/C=C/C(=O)N(C)C)c2)n1 | > 250000 nM | 700 nM | 
C=CS(=O)(=O)NNC(=O)CCc1ccccc1C(=O)N[C@H](C)c1cc(-c2cnn(C)c2)cc(-c2ccn(CC)n2)c1 |  | 300 nM | CC50 (Vero C1008): 31000 nM
CCn1ccc(-c2cc(-c3cnn(C)c3)cc([C@@H](C)NC(=O)c3ccccc3CCC(=O)NNC(=O)CCl)c2)n1 |  | 300 nM | CC50 (Vero C1008): > 250000 nM
CCn1ccc(-c2cc(-c3cnn(C)c3)cc([C@@H](C)NC(=O)c3ccccc3CCC(=O)NNC(=O)/C=C/C(=O)N3CC(F)(F)C3)c2)n1 |  | 100 nM | Ki [10]: 0.25 nM; Ki [11]: 1.36 nM; inhibition [12]: inactive; inhibition [13]: inactive; EC50 (SARS-CoV-2 [4]): 185 nM
CCn1ccc(-c2cc(-c3cnn(C)c3)cc([C@@H](C)NC(=O)c3ccccc3CCC(=O)NCCC#N)c2)n1 | 146000 nM | > 10000 nM | 
CCn1ccc(-c2cc(-c3cnn(C)c3)cc([C@@H](C)NC(=O)c3ccccc3CCC(=O)NNC(=O)/C=C/C(=O)NC34CC(C3)C4)c2)n1 | > 250000 nM | 100 nM | EC50 (SARS-CoV-2 [4]): 6130 nM
CCn1ccc(-c2cc(-c3cnn(C)c3)cc([C@@H](C)NC(=O)c3ccccc3CCC(=O)NNC(=O)/C=C/CN(C)C)c2)n1 | > 250000 nM | > 5000 nM | 
C=CC(=O)NNC(=O)CCc1ccccc1C(=O)N[C@H](C)c1cc(-c2cnn(C)c2)cc(-c2ccn(CC)n2)c1 | > 250000 nM | 3100 nM | 
CCn1ccc(-c2cc(-c3cnn(C)c3)cc([C@@H](C)NC(=O)c3ccccc3CCC(=O)NNC(=O)/C=C/C(=O)N3CCC3)c2)n1 | > 250000 nM | 100 nM | t1/2 ([3]; microsomes, 1 h, 1 µM): > 2.42 h; Cmax [14]: < 10 ng/mL; EC50 (SARS-CoV-2 [4]): 3200 nM
CCn1ccc(-c2cc(-c3cnn(C)c3)cc(C3(NC(=O)c4ccccc4CNC(=O)CNC(=O)/C=C/C(=O)N4CC(F)(F)C4)CC3)c2)n1 | > 250000 nM | 1600 nM | 
CCn1ccc(-c2cc(-c3cnn(C)c3)cc([C@@H](C)NC(=O)c3ccccc3CCC(=O)NNC(=O)C(Cl)Cl)c2)n1 | > 250000 nM | 2200 nM | 
CCn1ccc(-c2cc(-c3cnn(C)c3)cc([C@@H](C)NC(=O)c3ccccc3CCC(=O)NNC(=O)/C=C/C(=O)N3CC(C)(C)C3)c2)n1 | > 250000 nM |  | Cmax [15]: 995 ng/mL; half-life at 1 µM [3]: 1.4 h; Cmax [14]: < 10 ng/mL; AUClast [16]: 2513 ng·h/mL
CCOC(=O)/C=C/C(=O)NCC(=O)NCc1ccccc1C(=O)NC1(c2cc(-c3cnn(C)c3)cc(-c3ccn(CC)n3)c2)CC1 | > 250000 nM | 1100 nM | 
CCn1ccc(-c2cc(-c3cnn(C)c3)cc([C@@H](C)NC(=O)c3cc(OCCN(C)C)ccc3C)c2)n1 |  |  | EC50 (SARS-CoV-2 [17]): 420 nM

— ChEMBL document CHEMBL6092219, “Structure-Based Design of Covalent SARS-CoV-2 Papain-like Protease Inhibitors” (J Med Chem, 2024)
